How the values were obtained:
Type in all cases: in vivo
corn (Zea mays) [1] = test: Test G Post-Emergence Protocol; conditions: Zea mays, post-emergence, 312 h; for plant injury at 15.625 g/ha: 15.625 g ai/ha, evaluated after 13 days (100=total damage to plant; 0=no damage to plant), read-out: Corn damage rating; for plant injury at 62.5 g/ha: 62.5 g ai/ha, read-out: Corn damage rating (100=total damage to plant; 0=no damage to plant); for plant injury at 62.5 g/ha / plant injury at 250 g/ha: evaluated after 13 days; for plant injury at 250 g/ha: 250 g ai/ha, read-out: damage to plant, Corn (100=total damage to plant; 0=no damage to plant)
Outline: (§1)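 Seedlings grown 8 days in soil in a glasshouse (24/16 °C day/night, 14 h light, 65% humidity) were sprayed post-emergence with compound in acetone/water 50:50 plus 0.5% Tween 20 at 15.625, 62.5 or 250 g/ha. Damage was scored after 13 days on a 0–100 scale (100 = total damage).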

[2] = system: ivy-leaved morning glory (Ipomoea hederacea); test: Test G Post-Emergence Protocol; conditions: Ipomoea, post-emergence, 312 h; for pest or weed control at 15.625 g/ha: 15.625 g ai/ha, evaluated after 13 days (100=total damage to plant; 0=no damage to plant), read-out: Morningglory, Ivy-leaved damage rating; for pest or weed control at 62.5 g/ha: 62.5 g ai/ha, read-out: Morningglory, Ivy-leaved damage rating (100=total damage to plant; 0=no damage to plant); for pest or weed control at 62.5 g/ha / pest or weed control at 250 g/ha: evaluated after 13 days; for pest or weed control at 250 g/ha: 250 g ai/ha, read-out: damage to plant, Morningglory, Ivy-leaved (100=total damage to plant; 0=no damage to plant)
Outline: as §1

[3] = system: velvetleaf (Abutilon theophrasti); test: Test G Post-Emergence Protocol; conditions: Abutilon theophrasti, post-emergence, 312 h; for pest or weed control at 15.625 g/ha: 15.625 g ai/ha, evaluated after 13 days (100=total damage to plant; 0=no damage to plant), read-out: Velvetleaf damage rating; for pest or weed control at 62.5 g/ha: 62.5 g ai/ha, read-out: Velvetleaf damage rating (100=total damage to plant; 0=no damage to plant); for pest or weed control at 62.5 g/ha / pest or weed control at 250 g/ha: evaluated after 13 days; for pest or weed control at 250 g/ha: 250 g ai/ha, read-out: damage to plant, Velvetleaf (100=total damage to plant; 0=no damage to plant)
Outline: as §1

[4] = system: giant foxtail (Setaria faberi); test: Test G Post-Emergence Protocol; conditions: Setaria faberi, post-emergence, 312 h; for pest or weed control at 15.625 g/ha: 15.625 g ai/ha, evaluated after 13 days (100=total damage to plant; 0=no damage to plant), read-out: Foxtail, Giant damage rating; for pest or weed control at 62.5 g/ha: 62.5 g ai/ha, read-out: Foxtail, Giant damage rating (100=total damage to plant; 0=no damage to plant); for pest or weed control at 62.5 g/ha / pest or weed control at 250 g/ha: evaluated after 13 days; for pest or weed control at 250 g/ha: 250 g ai/ha, read-out: damage to plant, Foxtail, Giant (100=total damage to plant; 0=no damage to plant)
Outline: as §1

[5] = system: redroot pigweed (Amaranthus retroflexus); test: Test G Post-Emergence Protocol; conditions: Amaranthus retroflexus, post-emergence, 312 h; for pest or weed control at 15.625 g/ha: 15.625 g ai/ha, evaluated after 13 days (100=total damage to plant; 0=no damage to plant), read-out: Pigweed, Redroot damage rating; for pest or weed control at 62.5 g/ha: 62.5 g ai/ha, read-out: Pigweed, Redroot damage rating (100=total damage to plant; 0=no damage to plant); for pest or weed control at 62.5 g/ha / pest or weed control at 250 g/ha: evaluated after 13 days; for pest or weed control at 250 g/ha: 250 g ai/ha, read-out: damage to plant, Pigweed, Redroot (100=total damage to plant; 0=no damage to plant)
Outline: as §1

[6] = system: barnyardgrass (Echinochloa crus-galli); test: Test G Post-Emergence Protocol; conditions: Echinochloa crus-galli, post-emergence, 312 h; for pest or weed control at 15.625 g/ha: 15.625 g ai/ha, evaluated after 13 days (100=total damage to plant; 0=no damage to plant), read-out: Barnyardgrass damage rating; for pest or weed control at 62.5 g/ha: 62.5 g ai/ha, read-out: Barnyardgrass damage rating (100=total damage to plant; 0=no damage to plant); for pest or weed control at 62.5 g/ha / pest or weed control at 250 g/ha: evaluated after 13 days; for pest or weed control at 250 g/ha: 250 g ai/ha, read-out: damage to plant, Barnyardgrass (100=total damage to plant; 0=no damage to plant)
Outline: as §1

corn (Zea mays) [7] = test: Test G Pre-Emergence Protocol; conditions: Zea mays, pre-emergence, 312 h, evaluated after 13 days; for plant injury at 15.625 g/ha: 15.625 g ai/ha; for plant injury at 15.625 g/ha / plant injury at 250 g/ha: read-out: Corn damage rating (100=total damage to plant; 0=no damage to plant); for plant injury at 62.5 g/ha: 62.5 g ai/ha, 100=total damage to plant, 0=no damage to plant, read-out: plant damage rating, Corn; for plant injury at 250 g/ha: 250 g ai/ha
Outline: (§2)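 Under a 24/16° C day/night regime with 14 h light and 65% humidity, sown pots were sprayed after one day with compound (15.625, 62.5 or 250 g/ha; 50:50 acetone/water, 0.5% Tween 20). Damage was assessed visually 13 days later, 0 to 100.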

[8] = system: ivy-leaved morning glory (Ipomoea hederacea); test: Test G Pre-Emergence Protocol; conditions: Ipomoea, pre-emergence, 312 h, evaluated after 13 days; for pest or weed control at 15.625 g/ha: 15.625 g ai/ha, read-out: Morning-glory, Ivy-leaved damage rating (100=total damage to plant; 0=no damage to plant); for pest or weed control at 62.5 g/ha: 62.5 g ai/ha, 100=total damage to plant, 0=no damage to plant, read-out: plant damage rating, Morningglory, Ivy-leaved; for pest or weed control at 250 g/ha: 250 g ai/ha, read-out: Morningglory, Ivy-leaved damage rating (100=total damage to plant; 0=no damage to plant)
Outline: as §2

[9] = system: velvetleaf (Abutilon theophrasti); test: Test G Pre-Emergence Protocol; conditions: Abutilon theophrasti, pre-emergence, 312 h, evaluated after 13 days; for pest or weed control at 15.625 g/ha: 15.625 g ai/ha; for pest or weed control at 15.625 g/ha / pest or weed control at 250 g/ha: read-out: Velvetleaf damage rating (100=total damage to plant; 0=no damage to plant); for pest or weed control at 62.5 g/ha: 62.5 g ai/ha, 100=total damage to plant, 0=no damage to plant, read-out: plant damage rating, Velvetleaf; for pest or weed control at 250 g/ha: 250 g ai/ha
Outline: as §2

[10] = system: giant foxtail (Setaria faberi); test: Test G Pre-Emergence Protocol; conditions: Setaria faberi, pre-emergence, 312 h, evaluated after 13 days; for pest or weed control at 15.625 g/ha: 15.625 g ai/ha; for pest or weed control at 15.625 g/ha / pest or weed control at 250 g/ha: read-out: Foxtail, Giant damage rating (100=total damage to plant; 0=no damage to plant); for pest or weed control at 62.5 g/ha: 62.5 g ai/ha, 100=total damage to plant, 0=no damage to plant, read-out: plant damage rating, Foxtail, Giant; for pest or weed control at 250 g/ha: 250 g ai/ha
Outline: as §2

[11] = system: redroot pigweed (Amaranthus retroflexus); test: Test G Pre-Emergence Protocol; conditions: Amaranthus retroflexus, pre-emergence, 312 h, evaluated after 13 days; for pest or weed control at 15.625 g/ha: 15.625 g ai/ha; for pest or weed control at 15.625 g/ha / pest or weed control at 250 g/ha: read-out: Pigweed, Redroot damage rating (100=total damage to plant; 0=no damage to plant); for pest or weed control at 62.5 g/ha: 62.5 g ai/ha, 100=total damage to plant, 0=no damage to plant, read-out: plant damage rating, Pigweed, Redroot; for pest or weed control at 250 g/ha: 250 g ai/ha
Outline: as §2

[12] = system: barnyardgrass (Echinochloa crus-galli); test: Test G Pre-Emergence Protocol; conditions: Echinochloa crus-galli, pre-emergence, 312 h, evaluated after 13 days; for pest or weed control at 15.625 g/ha: 15.625 g ai/ha, read-out: Barnyard grass damage rating (100=total damage to plant; 0=no damage to plant); for pest or weed control at 62.5 g/ha: 62.5 g ai/ha, 100=total damage to plant, 0=no damage to plant, read-out: plant damage rating, Barnyardgrass; for pest or weed control at 250 g/ha: 250 g ai/ha, read-out: Barnyardgrass damage rating (100=total damage to plant; 0=no damage to plant)
Outline: as §2

Row | SMILES | plant injury at 15.625 g/ha (corn (Zea mays) [1]) | plant injury at 62.5 g/ha (corn (Zea mays) [1]) | plant injury at 250 g/ha (corn (Zea mays) [1]) | pest or weed control at 15.625 g/ha [2] | pest or weed control at 62.5 g/ha [2] | pest or weed control at 250 g/ha [2] | pest or weed control at 15.625 g/ha [3] | pest or weed control at 62.5 g/ha [3] | pest or weed control at 250 g/ha [3] | pest or weed control at 15.625 g/ha [4] | pest or weed control at 62.5 g/ha [4] | pest or weed control at 250 g/ha [4] | pest or weed control at 15.625 g/ha [5] | pest or weed control at 62.5 g/ha [5] | pest or weed control at 250 g/ha [5] | pest or weed control at 15.625 g/ha [6] | pest or weed control at 62.5 g/ha [6] | pest or weed control at 250 g/ha [6] | plant injury at 15.625 g/ha (corn (Zea mays) [7]) | plant injury at 62.5 g/ha (corn (Zea mays) [7]) | further results
1 | CN1C[C@H](c2ccc(C(F)(F)F)cc2)[C@@H](C(=O)NC2=NOC(C)(C)C2)C1=O (racemic) [Compound 1427] | 0% | 0% | 0% | 0% | 0% | 0% | 0% | 0% | 0% | 0% | 0% | 0% | 0% | 0% | 0% | 0% | 0% | 0% | 0% | 0% | plant injury at 250 g/ha (corn (Zea mays) [7]): 0%; pest or weed control at 15.625 g/ha [8]: 0%; pest or weed control at 62.5 g/ha [8]: 0%; pest or weed control at 250 g/ha [8]: 0%; pest or weed control at 15.625 g/ha [9]: 0%; pest or weed control at 62.5 g/ha [9]: 0%; pest or weed control at 250 g/ha [9]: 0%; pest or weed control at 15.625 g/ha [10]: 0%; pest or weed control at 62.5 g/ha [10]: 0%; pest or weed control at 250 g/ha [10]: 0%; pest or weed control at 15.625 g/ha [11]: 0%; pest or weed control at 62.5 g/ha [11]: 0%; pest or weed control at 250 g/ha [11]: 0%; pest or weed control at 15.625 g/ha [12]: 0%; pest or weed control at 62.5 g/ha [12]: 0%; pest or weed control at 250 g/ha [12]: 0%
2 | CN1C[C@H](c2ccc(C(F)(F)F)cc2)[C@@H](C(=O)Nc2cccc3nsnc23)C1=O (racemic) [Compound 1430] | 0% | 0% | 0% | 0% | 0% | 0% | 0% | 0% | 0% | 0% | 10% | 50% | 0% | 0% | 20% | 0% | 0% | 30% | 0% | 0% | plant injury at 250 g/ha (corn (Zea mays) [7]): 0%; pest or weed control at 15.625 g/ha [8]: 0%; pest or weed control at 62.5 g/ha [8]: 0%; pest or weed control at 250 g/ha [8]: 0%; pest or weed control at 15.625 g/ha [9]: 0%; pest or weed control at 62.5 g/ha [9]: 0%; pest or weed control at 250 g/ha [9]: 0%; pest or weed control at 15.625 g/ha [10]: 10%; pest or weed control at 62.5 g/ha [10]: 50%; pest or weed control at 250 g/ha [10]: 80%; pest or weed control at 15.625 g/ha [11]: 0%; pest or weed control at 62.5 g/ha [11]: 0%; pest or weed control at 250 g/ha [11]: 0%; pest or weed control at 15.625 g/ha [12]: 0%; pest or weed control at 62.5 g/ha [12]: 20%; pest or weed control at 250 g/ha [12]: 60%
3 | CN1C[C@H](c2ccc(C(F)(F)F)cc2)[C@@H](C(=O)Nc2ncccc2C#N)C1=O (racemic) [Compound 1433] | 0% | 0% | 0% | 0% | 0% | 0% | 0% | 0% | 0% | 0% | 0% | 0% | 0% | 0% | 0% | 0% | 0% | 0% | 0% | 0% | plant injury at 250 g/ha (corn (Zea mays) [7]): 0%; pest or weed control at 15.625 g/ha [8]: 0%; pest or weed control at 62.5 g/ha [8]: 0%; pest or weed control at 250 g/ha [8]: 0%; pest or weed control at 15.625 g/ha [9]: 0%; pest or weed control at 62.5 g/ha [9]: 0%; pest or weed control at 250 g/ha [9]: 0%; pest or weed control at 15.625 g/ha [10]: 0%; pest or weed control at 62.5 g/ha [10]: 0%; pest or weed control at 250 g/ha [10]: 0%; pest or weed control at 15.625 g/ha [11]: 0%; pest or weed control at 62.5 g/ha [11]: 0%; pest or weed control at 250 g/ha [11]: 0%; pest or weed control at 15.625 g/ha [12]: 0%; pest or weed control at 62.5 g/ha [12]: 0%; pest or weed control at 250 g/ha [12]: 0%
